Laboratory results from ChEMBL document CHEMBL5154659, “A3 adenosine receptor agonists containing dopamine moieties for enhanced interspecies affinity” (Eur J Med Chem, 2022).
Converted amounts (≈) assume the structure as drawn.

Assays:
[1] = molecular target: T1, Adenosine receptor A3 (Mus musculus, UniProt Q61618); experiment: Displacement of [125I] N6-4-amino-3-iodobenzyl adenosine 5-N-methyluronamide from mouse A3A receptor stably expressed in HEK293 cell membrane by radioligand inhibition assay; format: cell membranes
T1 sequence (Q61618 whole entry): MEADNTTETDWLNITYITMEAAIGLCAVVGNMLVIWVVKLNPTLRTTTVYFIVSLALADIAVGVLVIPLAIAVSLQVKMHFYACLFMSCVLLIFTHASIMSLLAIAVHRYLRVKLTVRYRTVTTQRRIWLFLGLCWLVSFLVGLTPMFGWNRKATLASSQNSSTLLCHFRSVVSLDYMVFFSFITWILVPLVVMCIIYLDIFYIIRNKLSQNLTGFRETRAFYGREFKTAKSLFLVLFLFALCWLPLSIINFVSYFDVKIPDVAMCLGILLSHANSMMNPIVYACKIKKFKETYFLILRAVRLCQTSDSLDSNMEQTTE

[2] = molecular target: T2, Adenosine receptor A2a (Homo sapiens, UniProt P29274); experiment: Binding affinity to human adenosine A2A receptor expressed in human HEK293 cell membrane at 10 uM by radioligand inhibition assay; format: cell membranes
[3] = molecular target: T3, Adenosine receptor A3 (Homo sapiens, UniProt P0DMS8); experiment: Displacement of [125I] N6-(4-amino-3-iodobenzyl)adenosine-5'-N-methyluronamide from human A3A receptor stably expressed in HEK293 cell membrane by radioligand inhibition assay; format: cell membranes
T3 sequence (P0DMS8 whole entry): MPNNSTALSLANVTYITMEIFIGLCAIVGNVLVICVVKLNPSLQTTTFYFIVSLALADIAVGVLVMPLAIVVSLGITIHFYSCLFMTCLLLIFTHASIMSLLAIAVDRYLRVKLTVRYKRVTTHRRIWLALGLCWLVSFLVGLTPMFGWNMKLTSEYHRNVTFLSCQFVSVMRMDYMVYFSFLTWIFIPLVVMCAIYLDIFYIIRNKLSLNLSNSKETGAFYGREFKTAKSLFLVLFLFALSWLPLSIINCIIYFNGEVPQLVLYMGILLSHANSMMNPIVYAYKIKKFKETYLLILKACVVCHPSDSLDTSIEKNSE

[4] = molecular target: T4, Adenosine receptor A1 (Mus musculus, UniProt Q60612); experiment: Displacement of [3H] N6-R-phenylisopropyladenosine from mouse A1A receptor stably expressed in HEK293 cell membrane by radioligand inhibition assay; format: cell membranes
T4 sequence (Q60612 whole entry): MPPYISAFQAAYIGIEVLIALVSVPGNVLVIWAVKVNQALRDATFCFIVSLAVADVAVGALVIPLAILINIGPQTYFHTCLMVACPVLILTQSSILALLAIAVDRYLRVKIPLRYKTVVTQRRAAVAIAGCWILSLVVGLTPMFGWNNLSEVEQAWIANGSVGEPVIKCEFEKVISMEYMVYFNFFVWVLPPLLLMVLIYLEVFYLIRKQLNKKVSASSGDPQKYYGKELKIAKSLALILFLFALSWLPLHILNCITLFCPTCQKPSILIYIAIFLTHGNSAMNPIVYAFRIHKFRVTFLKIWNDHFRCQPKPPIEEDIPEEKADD

[5] = molecular target: T5, Adenosine receptor A1 (Homo sapiens, UniProt P30542); experiment: Displacement of [3H] N6-R-phenylisopropyladenosine from human A1A receptor stably expressed in HEK293 cell membrane by radioligand inhibition assay; format: cell membranes
T5 sequence (P30542 whole entry): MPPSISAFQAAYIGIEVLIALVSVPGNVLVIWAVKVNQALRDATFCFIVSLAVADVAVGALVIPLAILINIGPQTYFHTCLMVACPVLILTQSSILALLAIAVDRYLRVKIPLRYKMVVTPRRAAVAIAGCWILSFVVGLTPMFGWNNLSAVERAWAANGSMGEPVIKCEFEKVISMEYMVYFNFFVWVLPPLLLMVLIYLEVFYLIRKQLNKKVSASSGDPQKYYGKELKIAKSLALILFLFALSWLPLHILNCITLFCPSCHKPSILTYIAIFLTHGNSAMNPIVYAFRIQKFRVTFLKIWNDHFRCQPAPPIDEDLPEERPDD

[6] = Stability in human plasma assessed as parent compound remaining measured after 120 mins; format: ADME, cell-free; conditions: 2 h
[7] = Oral bioavailability in Wistar rat at 10 mg/kg; format: ADME, organism-based; conditions: in vivo
[8] = molecular target: Cytochrome P450 2D6 (Homo sapiens, UniProt P10635); experiment: (§1) Inhibition of CYP2D6 (unknown origin); format: ADME
[9] = Half life in Wistar rat at 0.5 mg/kg, iv; format: ADME, organism-based; conditions: in vivo
[10] = Stability in mouse plasma assessed as parent compound remaining measured after 120 mins; format: ADME, cell-free; conditions: 2 h
[11] = molecular target: Cytochrome P450 2C19 (Homo sapiens, UniProt P33261); experiment: (§2) Inhibition of CYP2C19 (unknown origin); format: ADME
[12] = Microsomal stability in human plasma assessed as half life; format: ADME, cell-free
[13] = molecular target: T6, Adenosine receptor A1 (Homo sapiens) (UniProt P30542); experiment: Binding affinity to human adenosine A1A receptor expressed in human HEK293 cell membrane at 10 uM by radioligand inhibition assay; format: cell membranes
T6 sequence (whole entry): T5 sequence (P30542 whole entry)

[14] = Microsomal stability in Wistar rat plasma assessed as half life; format: ADME, cell-free
[15] = Stability in Wistar rat plasma assessed as parent compound remaining measured after 120 mins; format: ADME, cell-free; conditions: 2 h
[16] = molecular target: Cytochrome P450 3A4 (Homo sapiens, UniProt P08684); experiment: Inhibition of CYP3A4 (unknown origin); format: ADME
[17] = Microsomal stability in mouse plasma assessed as half life; format: ADME, cell-free
[18] = Apparent permeability across apical to basolateral side in human Caco-2 cells; format: ADME, cell-based
[19] = Stability of the compound in simulated gastric fluid assessed as parent compound remaining at 120 mins; format: ADME; conditions: simulated gi fluid, 2 h
[20] = molecular target: T7, Cytochrome P450 1A2 (Homo sapiens, UniProt P05177); experiment: Inhibition of CYP1A2 (unknown origin); format: ADME
T7 sequence (P05177 whole entry): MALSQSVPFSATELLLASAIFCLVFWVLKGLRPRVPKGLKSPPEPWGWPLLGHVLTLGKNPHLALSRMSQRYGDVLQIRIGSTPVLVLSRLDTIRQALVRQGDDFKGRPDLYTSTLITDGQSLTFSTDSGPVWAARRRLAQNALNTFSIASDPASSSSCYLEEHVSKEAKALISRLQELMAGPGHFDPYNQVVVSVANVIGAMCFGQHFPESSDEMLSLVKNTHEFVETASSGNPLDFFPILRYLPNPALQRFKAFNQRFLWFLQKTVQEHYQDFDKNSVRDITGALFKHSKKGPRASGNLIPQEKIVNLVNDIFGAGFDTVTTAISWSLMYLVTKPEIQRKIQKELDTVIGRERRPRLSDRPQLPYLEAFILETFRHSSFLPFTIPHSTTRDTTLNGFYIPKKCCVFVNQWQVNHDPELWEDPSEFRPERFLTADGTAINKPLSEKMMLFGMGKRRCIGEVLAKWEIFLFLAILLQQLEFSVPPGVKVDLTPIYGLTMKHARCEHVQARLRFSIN

[21] = Aqueous solubility of compound at pH 7.4; format: physicochemical
[22] = molecular target: Voltage-gated inwardly rectifying potassium channel KCNH2 (Homo sapiens, UniProt Q12809); experiment: Inhibition of human ERG; format: toxicity
[23] = Efflux ratio of permeability in human Caco2 cells; format: ADME, cell-based; conditions: caco-2
[24] = molecular target: Cytochrome P450 2C9 (Homo sapiens, UniProt P11712); experiment: Inhibition of CYP2C9 (unknown origin); format: ADME
[25] = Stability of the compound in simulated intestinal fluid assessed as parent compound remaining at 120 mins; format: ADME; conditions: simulated gi fluid, 2 h
[26] = molecular target: T2, Adenosine receptor A2a; experiment: Displacement of [3H]-2-p-2-(carboxyethyl)phenyl-ethylamino-5'-N-ethylcarboxamidoadenosine from human A2A receptor stably expressed in HEK293 cell membrane by radioligand inhibition assay; format: cell membranes
[27] = Oral bioavailability in Wistar rat at 3 mg/kg; format: ADME, organism-based; conditions: in vivo
[28] = molecular target: CYP2D6 (Homo sapiens, UniProt P10635); experiment: as §1; format: ADME
[29] = molecular target: CYP2C19 (Homo sapiens, UniProt P33261); experiment: as §2; format: ADME
Sequence of CYP2C19 (P33261 whole entry): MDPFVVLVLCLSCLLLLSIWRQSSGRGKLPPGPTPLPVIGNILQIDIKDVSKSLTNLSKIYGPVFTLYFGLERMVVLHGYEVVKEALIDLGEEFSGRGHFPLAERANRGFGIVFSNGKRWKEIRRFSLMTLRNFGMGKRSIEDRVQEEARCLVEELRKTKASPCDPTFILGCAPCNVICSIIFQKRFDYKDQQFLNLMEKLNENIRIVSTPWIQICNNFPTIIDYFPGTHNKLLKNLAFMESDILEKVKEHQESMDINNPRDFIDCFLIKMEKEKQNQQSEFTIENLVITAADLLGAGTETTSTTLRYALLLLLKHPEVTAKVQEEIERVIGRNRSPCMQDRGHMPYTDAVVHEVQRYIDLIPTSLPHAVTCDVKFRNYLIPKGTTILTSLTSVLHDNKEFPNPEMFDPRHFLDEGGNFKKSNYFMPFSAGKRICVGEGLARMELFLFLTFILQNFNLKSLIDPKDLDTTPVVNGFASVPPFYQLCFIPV

Sequence of Voltage-gated inwardly rectifying potassium channel KCNH2 (Q12809 whole entry): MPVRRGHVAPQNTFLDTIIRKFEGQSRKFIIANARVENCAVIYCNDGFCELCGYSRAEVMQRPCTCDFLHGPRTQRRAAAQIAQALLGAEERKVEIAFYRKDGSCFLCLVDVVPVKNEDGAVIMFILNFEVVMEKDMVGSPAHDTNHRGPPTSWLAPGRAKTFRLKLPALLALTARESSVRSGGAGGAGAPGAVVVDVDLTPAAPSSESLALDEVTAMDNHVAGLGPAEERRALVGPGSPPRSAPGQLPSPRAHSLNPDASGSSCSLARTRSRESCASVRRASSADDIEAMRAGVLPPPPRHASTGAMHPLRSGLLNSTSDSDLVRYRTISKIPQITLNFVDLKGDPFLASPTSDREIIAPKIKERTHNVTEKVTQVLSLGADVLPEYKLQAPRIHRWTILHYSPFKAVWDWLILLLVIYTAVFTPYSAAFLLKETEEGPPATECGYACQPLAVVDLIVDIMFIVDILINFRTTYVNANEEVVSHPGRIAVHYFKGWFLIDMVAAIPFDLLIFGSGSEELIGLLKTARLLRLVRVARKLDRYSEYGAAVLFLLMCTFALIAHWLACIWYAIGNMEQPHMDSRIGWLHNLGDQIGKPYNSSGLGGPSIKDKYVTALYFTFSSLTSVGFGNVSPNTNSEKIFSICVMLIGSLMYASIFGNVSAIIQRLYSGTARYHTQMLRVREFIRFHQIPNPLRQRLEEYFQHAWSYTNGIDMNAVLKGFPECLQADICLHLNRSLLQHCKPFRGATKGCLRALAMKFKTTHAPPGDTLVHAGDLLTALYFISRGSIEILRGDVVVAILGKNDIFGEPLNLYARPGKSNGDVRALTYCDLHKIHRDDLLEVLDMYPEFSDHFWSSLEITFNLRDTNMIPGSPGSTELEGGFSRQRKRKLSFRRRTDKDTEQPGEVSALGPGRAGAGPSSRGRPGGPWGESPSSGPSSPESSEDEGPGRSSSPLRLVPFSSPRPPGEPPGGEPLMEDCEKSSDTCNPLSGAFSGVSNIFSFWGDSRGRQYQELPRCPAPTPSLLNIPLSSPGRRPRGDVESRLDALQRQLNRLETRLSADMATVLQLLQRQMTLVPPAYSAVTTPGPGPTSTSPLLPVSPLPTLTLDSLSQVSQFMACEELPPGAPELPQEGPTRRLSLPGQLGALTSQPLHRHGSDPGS
T2 sequence (P29274 whole entry): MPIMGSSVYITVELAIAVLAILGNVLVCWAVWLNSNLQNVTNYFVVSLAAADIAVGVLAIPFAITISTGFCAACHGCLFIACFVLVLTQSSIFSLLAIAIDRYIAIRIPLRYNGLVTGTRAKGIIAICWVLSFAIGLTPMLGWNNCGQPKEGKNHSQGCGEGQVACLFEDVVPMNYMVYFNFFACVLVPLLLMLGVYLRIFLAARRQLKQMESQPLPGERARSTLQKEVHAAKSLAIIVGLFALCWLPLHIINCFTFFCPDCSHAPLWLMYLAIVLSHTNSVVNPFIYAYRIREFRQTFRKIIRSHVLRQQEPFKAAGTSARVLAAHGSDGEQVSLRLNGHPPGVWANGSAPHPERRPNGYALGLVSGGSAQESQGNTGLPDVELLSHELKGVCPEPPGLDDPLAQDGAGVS
Sequence of Cytochrome P450 2C9 (P11712 whole entry): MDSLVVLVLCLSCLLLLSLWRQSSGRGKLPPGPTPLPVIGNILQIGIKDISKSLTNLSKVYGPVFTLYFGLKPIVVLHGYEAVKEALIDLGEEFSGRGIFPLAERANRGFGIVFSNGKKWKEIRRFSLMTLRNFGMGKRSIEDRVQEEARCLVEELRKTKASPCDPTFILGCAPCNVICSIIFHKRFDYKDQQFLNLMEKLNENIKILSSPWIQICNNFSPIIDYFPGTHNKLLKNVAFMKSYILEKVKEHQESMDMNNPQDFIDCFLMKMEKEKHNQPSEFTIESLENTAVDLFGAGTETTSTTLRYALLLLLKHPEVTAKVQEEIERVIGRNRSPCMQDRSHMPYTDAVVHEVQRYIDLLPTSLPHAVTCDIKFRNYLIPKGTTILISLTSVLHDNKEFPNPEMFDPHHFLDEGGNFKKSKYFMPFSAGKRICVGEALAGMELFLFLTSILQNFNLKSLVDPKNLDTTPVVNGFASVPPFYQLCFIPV
Sequence of Cytochrome P450 2D6 (P10635 whole entry): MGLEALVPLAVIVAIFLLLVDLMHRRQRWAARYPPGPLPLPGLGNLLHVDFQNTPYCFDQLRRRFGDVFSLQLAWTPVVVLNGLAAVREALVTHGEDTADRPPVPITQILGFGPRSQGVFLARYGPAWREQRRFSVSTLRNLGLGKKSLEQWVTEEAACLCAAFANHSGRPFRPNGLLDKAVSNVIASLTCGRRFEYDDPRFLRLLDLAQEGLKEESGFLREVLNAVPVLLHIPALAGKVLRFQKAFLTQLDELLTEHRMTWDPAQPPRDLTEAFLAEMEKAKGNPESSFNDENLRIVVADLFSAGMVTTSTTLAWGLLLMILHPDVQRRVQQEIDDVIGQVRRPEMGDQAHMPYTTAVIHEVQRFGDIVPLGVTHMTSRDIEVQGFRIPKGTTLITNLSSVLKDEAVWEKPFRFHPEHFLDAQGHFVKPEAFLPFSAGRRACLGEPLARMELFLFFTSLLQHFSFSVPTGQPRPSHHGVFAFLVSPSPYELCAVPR
Sequence of Cytochrome P450 2C19 (P33261 whole entry): as the sequence (P33261 whole entry) above
Sequence of Cytochrome P450 3A4 (P08684 whole entry): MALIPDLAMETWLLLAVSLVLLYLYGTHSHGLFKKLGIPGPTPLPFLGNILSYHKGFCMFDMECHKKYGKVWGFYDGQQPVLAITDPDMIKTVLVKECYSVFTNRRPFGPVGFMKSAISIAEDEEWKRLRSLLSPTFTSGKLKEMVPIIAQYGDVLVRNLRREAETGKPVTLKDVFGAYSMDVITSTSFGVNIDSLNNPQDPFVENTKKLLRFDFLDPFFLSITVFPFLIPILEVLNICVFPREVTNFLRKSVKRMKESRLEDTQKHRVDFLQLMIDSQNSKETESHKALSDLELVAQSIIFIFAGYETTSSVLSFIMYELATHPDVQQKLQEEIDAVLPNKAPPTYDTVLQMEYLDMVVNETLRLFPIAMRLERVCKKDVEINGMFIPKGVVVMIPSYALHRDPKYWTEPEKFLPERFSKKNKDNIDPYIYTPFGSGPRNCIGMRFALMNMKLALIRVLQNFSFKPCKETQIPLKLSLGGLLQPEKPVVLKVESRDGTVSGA
Sequence of CYP2D6 (P10635 whole entry): as the sequence (P10635 whole entry) above

Row | Ki [1] | inhibition [2] | Ki [3] | Ki [4] | Stability [6] | IC50 [8] | half-life [9] | Stability [10] | IC50 [11] | half-life [12] | half-life [14] | Stability [15] | IC50 [16] | half-life [17] | Stability [19] | IC50 [20] | solubility ([21]; buffer) | IC50 [24] | Stability [25] | SMILES | IC50 [22] | further results
1 | 0.00169 µM | 39% | 0.00448 µM | 0.272 µM |  |  |  |  |  |  |  |  |  |  |  |  |  |  |  | CNC(=O)[C@@]12C[C@@H]1[C@@H](n1cnc3c(NCCc4ccccc4)nc(I)nc31)[C@H](O)[C@@H]2O |  | Ki [5]: 0.574 µM
2 | 0.00221 µM | 16% | 0.00867 µM | 7.05 µM | 100% | 17.7 µM | 43.9 min | 100% | 15.1 µM | 2 min | 11.5 min | 100% | 0.78 µM | 6.72 min | 100% | 0.43 µM | 3.84 µg/mL (≈ 6.3 µM) | > 30 µM | 100% | CNC(=O)[C@@]12C[C@@H]1[C@@H](n1cnc3c(NCCc4ccc(OC)c(OC)c4)nc(C#Cc4ccc(Cl)s4)nc31)[C@H](O)[C@@H]2O | 3.65 µM | bioavailability [7]: 1.88%; inhibition [13]: 0%; Papp [18]: 0.44 10^-6 cm/s; Ratio [23]: 46.6
3 | 0.0176 µM |  |  | 0.317 µM | 56.9% | > 30 µM | 101 min | 94.6% | > 30 µM | 6.51 min | 22.5 min | 84.6% | 0.83 µM | 9.15 min | 100% | 0.25 µM | 167 µg/mL (≈ 317 µM) | > 30 µM | 64.5% | CNC(=O)[C@@]12C[C@@H]1[C@@H](n1cnc3c(NCCc4ccc(OC)c(O)c4)nc(OCC(C)C)nc31)[C@H](O)[C@@H]2O | 16.5 µM | Ki [26]: 0.588 µM; bioavailability [27]: 4.34%
4 |  |  |  |  |  |  | 16.4 min |  |  | 16.3 min | 15.7 min |  |  | 7.92 min |  |  |  |  |  | COc1cc(CCNc2nc(C#Cc3ccccc3)nc3c2ncn3[C@H]2[C@H](O)[C@H](O)[C@@H]3C[C@@H]32)ccc1O | 5.39 µM | IC50 [28]: > 30 µM; IC50 [29]: > 30 µM; Papp A→B [18]: 2.71 ×10⁻⁶ cm/s; solubility ([21]; aqueous, read-out: solubility): 13 µg/mL (≈ 26.1 µM)
